From ChEMBL document CHEMBL1201862, “PubChem BioAssay data set” (2004)
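All cell lines were grown in 96-well plates and treated with compound for 48 hours. GI50 is the concentration that inhibits growth by half.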 Calls of active or inactive are those of the source. Rule as the data show it: active = GI50 up to about 1.1 µM and inactive = higher.

Experiments:
Assay in all cases: growth of human tumour cells (NCI), 48 h
UO-31 = tested on: UO-31
U-251 = tested on: U-251
DMS-273 = tested on: DMS-273
A498 = tested on: A498
EKVX = tested on: EKVX
MCF7 = tested on: MCF7
K562 = tested on: K562
KM12 = tested on: KM12
HL-60 = tested on: HL-60
SK-OV-3 = tested on: SK-OV-3
UACC-257 = tested on: UACC-257
SW-620 = tested on: SW-620
MOLT-4 = tested on: MOLT-4
DLD-1 = tested on: DLD-1
SK-MEL-28 = tested on: SK-MEL-28
NCI-H460 = tested on: NCI-H460
TK-10 = tested on: TK-10
SNB-19 = tested on: SNB-19
COLO 205 = tested on: COLO 205
HCC 2998 = tested on: HCC 2998
RXF 393 = tested on: RXF 393
SNB-75 = tested on: SNB-75
SF-539 = tested on: SF-539
SK-MEL-5 = tested on: SK-MEL-5
OVCAR-4 = tested on: OVCAR-4
M14 = tested on: M14
RPMI-8226 = tested on: RPMI-8226
OVCAR-8 = tested on: OVCAR-8
NCI-H23 = tested on: NCI-H23
OVCAR-3 = tested on: OVCAR-3
NCI-H226 = tested on: NCI-H226
CCRF-CEM = tested on: CCRF-CEM
A549 = tested on: A549
LXFL 529 = tested on: LXFL 529
NCI-H522 = tested on: NCI-H522
SNB-78 = tested on: SNB-78
DMS-114 = tested on: DMS-114
HT-29 = tested on: HT-29
IGROV-1 = tested on: IGROV-1
CAKI-1 = tested on: CAKI-1
HOP-92 = tested on: HOP-92
UACC-62 = tested on: UACC-62
LOX IMVI = tested on: LOX IMVI
HOP-62 = tested on: HOP-62
SN12C = tested on: SN12C
Malme-3M = tested on: Malme-3M
786-0 = tested on: 786-0
ACHN = tested on: ACHN
MDA-MB-435 = tested on: MDA-MB-435
Hs-578T = tested on: Hs-578T
MDA-N = tested on: MDA-N
DU-145 = tested on: DU-145
SR = tested on: SR
SF-268 = tested on: SF-268
T47D = tested on: T47D
HCT-116 = tested on: HCT-116
SK-MEL-2 = tested on: SK-MEL-2
OVCAR-5 = tested on: OVCAR-5
HCT-15 = tested on: HCT-15
MDA-MB-231 = tested on: MDA-MB-231
BT-549 = tested on: BT-549
NCI/ADR-RES = tested on: NCI/ADR-RES
PC-3 = tested on: PC-3
SF-295 = tested on: SF-295

How did the GI50 (UO-31) turn out when NC(=O)c1cn(C2OC(CO)C(O)C2O)c2ncnc(N)c12 (stereo not given) was run?
Its GI50 is 0.07 µM (active).

And the GI50 (U-251)?
The GI50 was 0.07 µM (active).

What about the GI50 (DMS-273) of the same molecule?
Its GI50 is 0.0213 µM (active).

And the GI50 (A498)?
Its GI50 is 0.0724 µM (active).

What about the GI50 (EKVX) of the same molecule?
Its GI50 is 0.0453 µM (active).

What about the GI50 (MCF7) of the same molecule?
The GI50 was 0.07 µM (active).

Which GI50 (K562) does the source give for CCSc1nc2cccc([N+](=O)[O-])c2n1CC here?
The GI50 was > 100 µM (inactive).

What about the GI50 (KM12) of the same molecule?
The GI50 was > 100 µM (inactive).

What about the GI50 (HL-60) of the same molecule?
The GI50 was > 100 µM (inactive).

And the GI50 (U-251)?
Its GI50 is > 100 µM (inactive).

What about the GI50 (SK-OV-3) of the same molecule?
The GI50 was > 100 µM (inactive).

What about the GI50 (UACC-257) of the same molecule?
Its GI50 is > 100 µM (inactive).

What about the GI50 (SW-620) of the same molecule?
Its GI50 is > 100 µM (inactive).

And the GI50 (MOLT-4)?
The GI50 was > 100 µM (inactive).

And the GI50 (DLD-1)?
Its GI50 is > 100 µM (inactive).

What about the GI50 (SK-MEL-28) of the same molecule?
Its GI50 is > 100 µM (inactive).

And the GI50 (NCI-H460)?
The GI50 was > 100 µM (inactive).

What about the GI50 (TK-10) of the same molecule?
The GI50 was > 100 µM (inactive).

And the GI50 (SNB-19)?
Its GI50 is > 100 µM (inactive).

And the GI50 (DMS-273)?
Its GI50 is > 100 µM (inactive).

What about the GI50 (COLO 205) of the same molecule?
The GI50 was > 100 µM (inactive).

What about the GI50 (HCC 2998) of the same molecule?
The GI50 was > 100 µM (inactive).

What about the GI50 (RXF 393) of the same molecule?
The GI50 was > 100 µM (inactive).

And the GI50 (SNB-75)?
Its GI50 is > 100 µM (inactive).

And the GI50 (SF-539)?
Its GI50 is > 100 µM (inactive).

And the GI50 (SK-MEL-5)?
The GI50 was > 100 µM (inactive).

What about the GI50 (OVCAR-4) of the same molecule?
The GI50 was > 100 µM (inactive).

What about the GI50 (M14) of the same molecule?
The GI50 was > 100 µM (inactive).

What about the GI50 (RPMI-8226) of the same molecule?
The GI50 was > 100 µM (inactive).

And the GI50 (OVCAR-8)?
The GI50 was > 100 µM (inactive).

And the GI50 (NCI-H23)?
Its GI50 is > 100 µM (inactive).

What about the GI50 (EKVX) of the same molecule?
The GI50 was > 100 µM (inactive).

And the GI50 (OVCAR-3)?
Its GI50 is > 100 µM (inactive).

What about the GI50 (NCI-H226) of the same molecule?
The GI50 was > 100 µM (inactive).

What about the GI50 (CCRF-CEM) of the same molecule?
The GI50 was > 100 µM (inactive).

What about the GI50 (A549) of the same molecule?
Its GI50 is > 100 µM (inactive).

And the GI50 (LXFL 529)?
The GI50 was > 100 µM (inactive).

And the GI50 (NCI-H522)?
Its GI50 is > 100 µM (inactive).

What about the GI50 (SNB-78) of the same molecule?
Its GI50 is > 100 µM (inactive).

What about the GI50 (DMS-114) of the same molecule?
The GI50 was > 100 µM (inactive).

What about the GI50 (HT-29) of the same molecule?
The GI50 was > 100 µM (inactive).

What about the GI50 (IGROV-1) of the same molecule?
Its GI50 is > 100 µM (inactive).

What about the GI50 (CAKI-1) of the same molecule?
The GI50 was > 100 µM (inactive).

And the GI50 (HOP-92)?
The GI50 was > 100 µM (inactive).

And the GI50 (UACC-62)?
The GI50 was > 100 µM (inactive).

And the GI50 (LOX IMVI)?
The GI50 was > 100 µM (inactive).

Which results are given for CSc1ccc2c(cc1=O)[C@@H](NC(=O)c1ccc([N+](=O)[O-])cc1)CCc1cc(O)c(O)c(O)c1-2?
GI50 (HOP-62): 16.2 µM (inactive); GI50 (K562): 18.4 µM (inactive); GI50 (KM12): 17.7 µM (inactive); GI50 (UO-31): 78.3 µM (inactive); GI50 (HL-60): 11.7 µM (inactive); GI50 (U-251): 34.2 µM (inactive); GI50 (SK-OV-3): > 100 µM (inactive); GI50 (UACC-257): > 100 µM (inactive); GI50 (SW-620): 43.6 µM (inactive); GI50 (MOLT-4): 30.6 µM (inactive); GI50 (SN12C): 21.6 µM (inactive); GI50 (SK-MEL-28): > 100 µM (inactive); GI50 (NCI-H460): 40 µM (inactive); GI50 (Malme-3M): > 100 µM (inactive); GI50 (786-0): 29.8 µM (inactive); GI50 (TK-10): > 100 µM (inactive); GI50 (SNB-19): 18.4 µM (inactive); GI50 (ACHN): 29.7 µM (inactive); GI50 (COLO 205): 24.7 µM (inactive); GI50 (MDA-MB-435): 16.6 µM (inactive); GI50 (A498): > 100 µM (inactive); GI50 (HCC 2998): > 100 µM (inactive); GI50 (RXF 393): > 100 µM (inactive); GI50 (Hs-578T): 21.2 µM (inactive); GI50 (SNB-75): > 100 µM (inactive); GI50 (MDA-N): 22.4 µM (inactive); GI50 (DU-145): > 100 µM (inactive); GI50 (SF-539): 28.8 µM (inactive); GI50 (SR): 3.99 µM (inactive); GI50 (SK-MEL-5): 18.7 µM (inactive); GI50 (OVCAR-4): 39.8 µM (inactive); GI50 (SF-268): 59 µM (inactive); GI50 (M14): 30.5 µM (inactive); GI50 (RPMI-8226): 40.3 µM (inactive); GI50 (OVCAR-8): 32.1 µM (inactive); GI50 (T47D): > 100 µM (inactive); GI50 (NCI-H23): 45.3 µM (inactive); GI50 (EKVX): > 100 µM (inactive); GI50 (OVCAR-3): 15.7 µM (inactive); GI50 (NCI-H226): 46.5 µM (inactive); GI50 (CCRF-CEM): 4.58 µM (inactive); GI50 (HCT-116): 34.8 µM (inactive); GI50 (A549): 28.1 µM (inactive); GI50 (SK-MEL-2): > 100 µM (inactive); GI50 (NCI-H522): 37.2 µM (inactive); GI50 (OVCAR-5): > 100 µM (inactive); GI50 (HCT-15): 30.4 µM; GI50 (MDA-MB-231): 28.2 µM (inactive); GI50 (BT-549): 60.3 µM (inactive); GI50 (NCI/ADR-RES): 17.4 µM (inactive); GI50 (PC-3): > 100 µM (inactive); GI50 (SF-295): 32.8 µM (inactive); GI50 (HT-29): 17.8 µM (inactive); GI50 (IGROV-1): 35.4 µM (inactive); GI50 (CAKI-1): 21.6 µM (inactive); GI50 (MCF7): 31.8 µM (inactive); GI50 (HOP-92): > 100 µM (inactive); GI50 (UACC-62): 53.3 µM (inactive); GI50 (LOX IMVI): 34.8 µM (inactive)
